# Patent US6369069B1 (Aventis Pharma Deutschland GmbH, priority 1998, dated 2002)
# Test system: Na^+-dependent Cl^−/HCO3^− exchanger (NCBE)
# Experiment: Inhibition of the Na+-dependent Cl−/HCO3− exchanger (NCBE) in human endothelial cells (pHi recovery, BCECF fluorescence, FLIPR)
# Type: cell-based
# Settings: 10 μM
# Procedure, shortened: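 Fluorescence rise (FLIPR, 2 min, 35 °C) tracked pHi recovery in acid-loaded, BCECF-loaded ECV-304 cells after adding Na+- and HCO3−-containing buffer with 50 μM HOE 642 and graded compound doses. Inhibition was calculated against full-recovery and bicarbonate-free no-recovery controls.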
row,SMILES,Residual activity % of the NCBE at 10 μM [%]
1,N#CNS(=O)(=O)c1ccccc1-c1ccc(CN(Cc2ccccc2)C(=O)CCC2CCCCC2)cc1 [Example 7],33.0
2,N#CNS(=O)(=O)c1ccccc1-c1ccc(CN(Cc2ccc3ccccc3c2)C(=O)CCOc2ccccc2)cc1 [Example 340],37.2
3,N#CNS(=O)(=O)c1ccccc1-c1ccc(CN(Cc2ccc(Cl)cc2Cl)C(=O)Cc2ccccc2Br)cc1 [Example 276],36.8
4,CC(C)CN(Cc1ccc(-c2ccccc2S(=O)(=O)NC#N)cc1)C(=O)c1cc2ccccc2s1 [Example 72],86.3
5,COc1ccc(CCN(Cc2ccc(-c3ccccc3S(=O)(=O)NC#N)cc2)C(=O)c2cccs2)cc1 [Example 90],84.2
6,N#CNS(=O)(=O)c1ccccc1-c1ccc(CN(Cc2ccc(C(F)(F)F)cc2)C(=O)c2ccccc2Cl)cc1 [Example 109],75.4
7,C=CCOC(=O)N(Cc1ccc(Cl)cc1)Cc1ccc(-c2ccccc2S(=O)(=O)NC#N)cc1 [Example 46],52.2
8,COC(=O)C(Cc1ccccc1)N(Cc1ccc(-c2ccccc2S(=O)(=O)NC#N)cc1)C(=O)C(=O)c1cccs1 (stereo not shown) [Example 201],69.6
9,N#CNS(=O)(=O)c1ccccc1-c1ccc(CN(Cc2cccs2)C(=O)C(NC(=O)OCc2ccccc2)c2ccccc2)cc1 (stereo not shown) [Example 251],83.9
10,N#CNS(=O)(=O)c1ccccc1-c1ccc(CN(Cc2ccc3c(c2)OCO3)C(=O)Cc2ccccc2)cc1 [Example 127],61.7
11,N#CNS(=O)(=O)c1ccccc1-c1ccc(CN(C(=O)CCCCc2cccs2)C2CC2)cc1 [Example 221],72.3
12,N#CNS(=O)(=O)c1ccccc1-c1ccc(CN(Cc2ccccc2F)C(=O)CCOc2ccccc2)cc1 [Example 346],36.0
13,COc1ccc(CN(Cc2ccc(-c3ccccc3S(=O)(=O)NC#N)cc2)C(=O)c2ccc(C(C)(C)C)cc2)cc1 [Example 33],67.2
14,Cc1cccc(CN(Cc2ccc(-c3ccccc3S(=O)(=O)NC#N)cc2)C(=O)CCOc2ccccc2)c1 [Example 341],44.6
15,C[C@@H](c1ccccc1)N(Cc1ccc(-c2ccccc2S(=O)(=O)NC#N)cc1)C(=O)c1cc2ccccc2s1 [Example 73],61.0
16,CC(C)(C)c1ccc(C(=O)N(Cc2ccccc2)Cc2ccc(-c3ccccc3S(=O)(=O)NC#N)cc2)cc1 [Example 31],52.2

# Same assay, conditions: 10 μM compound; human endothelial cells (ECV-304); related to 100% and 0% pHi recovery controls
row,SMILES,Residual activity of the NCBE at 10 μM [%]
1,"CS(=O)(=O)c1cc(-c2ccccc2S(=O)(=O)NC#N)ccc1CN(Cc1ccccc1)S(=O)(=O)c1cccs1 [Example 557, 4′-{[Benzyl(thiophene-2-sulfonyl)amino]methyl}-3′-methylsulfonylbiphenyl-2-sulfonylcyanamide]",14

# Same assay, conditions: compound at 10 μM; sub-table with R7 substituent
row,SMILES,Residual activity % of the NCBE at 10 μM [%]
1,Cc1ccc(-c2ccc(CN(Cc3ccccc3F)C(=O)Cc3ccc(Cl)cc3)cc2)c(S(=O)(=O)NC#N)c1 [Example 535],84.0
2,Cc1ccc(-c2ccc(CN(Cc3ccccc3)C(=O)C(C)c3cccs3)cc2)c(S(=O)(=O)NC#N)c1 (stereo not shown) [Example 521],88.2
3,Cc1ccc(-c2ccc(CN(Cc3ccccc3)C(=O)Cc3cccs3)cc2)c(S(=O)(=O)NC#N)c1 [Example 513],88.6
4,Cc1ccc(-c2ccc(CN(CCc3ccccc3)C(=O)C(C)c3cccs3)cc2)c(S(=O)(=O)NC#N)c1 (stereo not shown) [Example 526],64.9
5,Cc1ccc(-c2ccc(CN(Cc3ccccc3F)C(=O)Cc3ccsc3)cc2)c(S(=O)(=O)NC#N)c1 [Example 543],55.3
